Tested on: luteinising hormone and follicle-stimulating hormone genes in the pituitary gland
Assay: Gene expression (HGU133A) in the pituitary gland of ovariectomized monkeys treated with estradiol, tamoxifen or raloxifene
Assay type: in vivo, cynomolgus monkeys (Macaca fascicularis)
Conditions: for Fold change relative to OVX: Follicle stimulating hormone / Fold change relative to OVX: Luteinising hormone / Fold expression change to SHAM control: Follicle stimulating hormone / Fold expression change to SHAM control: Luteinising hormone: pituitary gland
Method: Female sexually mature cynomolgus monkeys (Macaca fascicularis obtained from R. C. Hartelust B V, Tilburg, the Netherlands) approximately 48 months old were subjected to surgery (ovarectomy [OVX] or sham) 10 weeks prior to treatment and were treated for parasitic arthropods and helminthes, subjected to a tuberculin testing, and acclimated to the treatment facility for at least 14 days before beginning treatment.
Surgical Procedures. The ovariectomized cynomolgus monkey (Macaca fascicularis), which has been validated as a useful model predictive of outcomes in human clinical trials of estrogen and SERMs (Cline J M et al., Toxicol Pathol. 29:84-90 (2001)), was used as a model of estrogen deficiency. Animals were ovariectomized approximately 10 weeks before the first day of treatment. The ovaries were removed following anesthesia with a combined intramuscular injection of xylazine (Rompun®: 0.4 mL/animal, Bayer Pharma Division Sante Animale, Puteaux, France) and ketamine hydrochloride (Imalgéne®: 0.6 mL/kg, Mérial, Lyon, France). Sham-operated animals were subjected to the same surgical procedure, except for the removal of ovaries.
Ovariectomized and sham-operated animals were divided into groups of 4 and treated as outlined below.
Gene expression was determined in the pituitary and uterus at the end of drug therapy. Tissues to be analyzed (pituitary glands and uterus) were excised, snap frozen in liquid nitrogen, and stored at −80° C. until RNA extraction was performed.
Total RNA was obtained by acid guanidinium isothiocyanate-phenol-chloroform extraction (Trizol; Invitrogen Life Technologies, San Diego, Calif., USA) and purified on an affinity resin column (RNeasy; Qiagen, Hilden, Germany) according to manufacturer instructions. […] Lockhart D J, Dong H, Byrne M C, et al. Nat. Biotechnol. 1996; 14:1675-1680.
Previous studies have proven the validity of cross-species DNA chip analysis (Hacia J G et al. Nat Genet. 18:155-158 (1998)), therefore, the human gene expression probe arrays HGU133A (Affymetrix, Santa Clara, Calif., USA) containing 22,283 probe sets interrogating primarily annotated human genes were used. One GeneChip was used per tissue, per animal. The resulting image files (.dat files) were processed using the Microarray Analysis Suite 5 (MAS5) software (Affymetrix, Inc.). Tab-delimited files were obtained containing data regarding signal intensity (Signal) and categorical expression level measurement (Absolute Call).

CC/C(=C(\c1ccccc1)c1ccc(OCCN(C)C)cc1)c1ccccc1 [tamoxifen]
Decrease of FSH transcripts in the pituitary gland (OVX monkeys): 2.7 fold | Decrease of LH transcripts in the pituitary gland (OVX monkeys): 2.4 fold | Fold change relative to OVX: Follicle stimulating hormone: 0.4 fold | Fold change relative to OVX: Luteinising hormone: 0.4 fold | Fold expression change to SHAM control: Follicle stimulating hormone (OVX monkeys): 2.3 fold | Fold expression change to SHAM control: Luteinising hormone (OVX monkeys): 3.2 fold

O=C(c1ccc(OCCN2CCCCC2)cc1)c1c(-c2ccc(O)cc2)sc2cc(O)ccc12 [raloxifene]
Fold change relative to OVX: Follicle stimulating hormone: 0.8 fold | Fold change relative to OVX: Luteinising hormone: 1.3 fold | Fold expression change to SHAM control: Follicle stimulating hormone (OVX monkeys): 5.2 fold | Fold expression change to SHAM control: Luteinising hormone (OVX monkeys): 9.8 fold

C#C[C@]1(O)CC[C@H]2[C@@H]3CCc4cc(O)ccc4[C@H]3CC[C@@]21C [EE]
Fold change relative to OVX: Follicle stimulating hormone: <0.1 fold | Fold change relative to OVX: Luteinising hormone: 0.1 fold | Fold expression change to SHAM control: Follicle stimulating hormone (OVX monkeys): 0.1 fold | Fold expression change to SHAM control: Luteinising hormone (OVX monkeys): 0.5 fold

Source: US20130040882A1, “USE OF FIBROBLAST GROWTH FACTOR FRAGMENTS” (NOVARTIS AG, priority 2003, published 2013)
